Calls of active or inactive are those of the source. No cut-off for these calls is given here.
What was measured:
BXPC-3 [1] = assay: Antiproliferative activity against human BXPC-3 cells expressing wild type KRAS cultured as 3D spheroids assessed as inhibition of cell growth measured after 72 hrs by MTT assay; assay type: functional, cell-based; conditions: BXPC-3, 72 h
[2] = biological target: T1, [Pyruvate dehydrogenase (acetyl-transferring)] kinase isozyme 1, mitochondrial (Homo sapiens, UniProt Q15118); assay: Inhibition of PDK1 (unknown origin) at 1.5 uM incubated for 30 mins followed by substrate addition measured after 60 mins in presence of ATP by ADP-Glo luminescent assay relative to control; conditions: time 90.0 min, values are per cent of control
T1 sequence (Q15118 whole entry): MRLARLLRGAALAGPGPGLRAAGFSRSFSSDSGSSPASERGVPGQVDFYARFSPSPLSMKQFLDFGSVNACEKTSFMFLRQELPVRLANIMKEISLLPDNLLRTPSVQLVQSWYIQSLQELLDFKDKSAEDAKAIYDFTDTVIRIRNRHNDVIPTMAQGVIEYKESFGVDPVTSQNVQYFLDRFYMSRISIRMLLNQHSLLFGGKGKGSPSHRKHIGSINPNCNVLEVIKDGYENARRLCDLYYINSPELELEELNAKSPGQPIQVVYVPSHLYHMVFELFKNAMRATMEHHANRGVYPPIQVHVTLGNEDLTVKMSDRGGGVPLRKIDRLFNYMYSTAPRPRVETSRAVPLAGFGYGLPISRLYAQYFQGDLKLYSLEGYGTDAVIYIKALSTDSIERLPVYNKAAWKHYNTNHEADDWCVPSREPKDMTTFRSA

[3] = biological target: [Pyruvate dehydrogenase (acetyl-transferring)] kinase isozyme 3, mitochondrial (Homo sapiens) (UniProt Q15120); assay: Inhibition of PDK3 (unknown origin) at 1.5 uM incubated for 30 mins followed by substrate addition measured after 60 mins in presence of ATP by ADP-Glo luminescent assay relative to control; conditions: time 90.0 min
Chain of [Pyruvate dehydrogenase (acetyl-transferring)] kinase isozyme 3, mitochondrial (Homo sapiens) (Q15120 whole entry, looked up): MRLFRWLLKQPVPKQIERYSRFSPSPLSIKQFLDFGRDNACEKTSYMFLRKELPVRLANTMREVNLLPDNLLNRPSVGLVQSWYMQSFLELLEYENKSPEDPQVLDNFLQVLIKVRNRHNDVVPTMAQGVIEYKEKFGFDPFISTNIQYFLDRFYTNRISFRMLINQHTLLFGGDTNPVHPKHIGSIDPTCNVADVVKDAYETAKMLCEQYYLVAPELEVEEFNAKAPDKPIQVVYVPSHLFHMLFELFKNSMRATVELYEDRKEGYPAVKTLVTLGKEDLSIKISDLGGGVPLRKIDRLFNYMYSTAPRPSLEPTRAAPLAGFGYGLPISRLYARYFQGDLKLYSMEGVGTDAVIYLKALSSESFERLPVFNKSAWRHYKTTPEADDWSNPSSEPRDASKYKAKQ

[4] = biological target: [Pyruvate dehydrogenase (acetyl-transferring)] kinase isozyme 2, mitochondrial (Homo sapiens) (UniProt Q15119); assay: Inhibition of PDK2 (unknown origin) at 1.5 uM incubated for 30 mins followed by substrate addition measured after 60 mins in presence of ATP by ADP-Glo luminescent assay relative to control; conditions: time 90.0 min
PSN1 [5] = assay: Antiproliferative activity against human PSN1 cells expressing KRAS mutant cultured as 3D spheroids assessed as inhibition of cell growth measured after 72 hrs by MTT assay; assay type: functional, cell-based; conditions: PSN1, 72 h
PSN1 [6] = assay: Antiproliferative activity against human PSN1 cells expressing KRAS mutant cultured as 2D spheroids assessed as inhibition of cell growth measured after 72 hrs by MTT assay; assay type: functional, cell-based; conditions: PSN1, 72 h
BXPC-3 [7] = assay: Antiproliferative activity against human BXPC-3 cells expressing wild type KRAS cultured as 2D spheroids assessed as inhibition of cell growth measured after 72 hrs by MTT assay; assay type: functional, cell-based; conditions: BXPC-3, 72 h
PSN1 [8] = assay: Induction of reactive oxygen species production in human PSN1 cells assessed as increase in cellular hydrogen peroxide formation at 5 uM by CM-H2DCFDA staining based analysis; assay type: functional, cell-based
PSN1 [9] = assay: Inhibition of PDK in human PSN1 cells expressing KRAS mutant assessed as decrease in lactate production levels at IC50 incubated for 60 mins by colorimetric analysis; assay type: cell-based
[10] = biological target: T1, [Pyruvate dehydrogenase (acetyl-transferring)] kinase isozyme 1, mitochondrial; assay: Inhibition of PDK1 (unknown origin) incubated for 30 mins followed by substrate addition measured after 60 mins in presence of ATP by ADP-Glo luminescent assay
Heat shock protein HSP90 [11] = biological target: T2, Heat shock protein HSP90 (Homo sapiens, UniProt P07900+P08238); assay: Inhibition of human recombinant HSP90 at 1.5 uM incubated for 30 mins by fluorescence polarization based analysis relative to control; assay type: protein assay
PSN1 [12] = assay: Inhibition of PDK in human PSN1 cells expressing KRAS mutant assessed as increase in cellular oxygen consumption at IC50 incubated for 60 mins by fluorescence based analysis; assay type: cell-based
PSN1 [13] = assay: Induction of reactive oxygen species production in human PSN1 cells assessed as decrease in total cellular sulfhydryls level at IC50 incubated for 24 hrs by DTNB reagent based spectrophotometric analysis; assay type: functional, cell-based
PSN1 [14] = assay: Downregulation of PDHA1 phosphorylation in human PSN1 cells at IC50 incubated for 24 hrs by ELISA assay; assay type: functional, cell-based
[15] = biological target: [Pyruvate dehydrogenase (acetyl-transferring)] kinase isozyme 4, mitochondrial (Homo sapiens) (UniProt Q16654); assay: Inhibition of PDK4 (unknown origin) at 1.5 uM incubated for 30 mins followed by substrate addition measured after 60 mins in presence of ATP by ADP-Glo luminescent assay relative to control; conditions: time 90.0 min
Chain of [Pyruvate dehydrogenase (acetyl-transferring)] kinase isozyme 4, mitochondrial (Homo sapiens) (Q16654 whole entry, looked up): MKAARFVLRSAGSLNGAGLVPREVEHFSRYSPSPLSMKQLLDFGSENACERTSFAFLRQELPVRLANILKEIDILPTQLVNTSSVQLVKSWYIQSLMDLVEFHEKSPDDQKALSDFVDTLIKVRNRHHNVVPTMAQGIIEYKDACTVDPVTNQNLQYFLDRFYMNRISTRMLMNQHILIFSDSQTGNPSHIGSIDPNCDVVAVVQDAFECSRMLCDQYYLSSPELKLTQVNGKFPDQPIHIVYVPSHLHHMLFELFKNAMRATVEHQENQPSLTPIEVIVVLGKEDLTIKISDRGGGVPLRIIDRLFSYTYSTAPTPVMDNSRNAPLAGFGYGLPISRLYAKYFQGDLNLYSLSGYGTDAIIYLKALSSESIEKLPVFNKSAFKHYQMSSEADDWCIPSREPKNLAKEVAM

PSN1 [16] = assay: Induction of mitochondrial membrane potential loss in human PSN1 cells at IC50 incubated for 60 mins by fluorescence based analysis; assay type: functional
PSN1 [17] = assay: Induction of mitochondrial damage in human PSN1 cells assessed as increase in mitochondria substantial swelling at IC50 incubated for 24 hrs by staining based TEM analysis; assay type: functional, cell-based
PSN1 [18] = assay: Induction of mitochondrial damage in human PSN1 cells assessed as decrease in mitochondria inner membrane electron density at IC50 incubated for 24 hrs by staining based TEM analysis; assay type: functional, cell-based
PSN1 [19] = assay: Induction of apoptosis in human PSN1 cells assessed as brightly stained nuclei at IC50 incubated for 48 hrs by Hoechst 33258 staining based confocal microscopic analysis; assay type: functional, cell-based
PSN1 [20] = assay: Induction of mitochondrial damage in human PSN1 cells assessed as increase in disruption of cristae at IC50 incubated for 24 hrs by staining based TEM analysis; assay type: functional, cell-based
PSN1 [21] = assay: Induction of mitochondrial damage in human PSN1 cells assessed as decrease in mitochondria matrix region electron density at IC50 incubated for 24 hrs by staining based TEM analysis; assay type: functional, cell-based
PSN1 [22] = assay: Induction of apoptosis in human PSN1 cells assessed as chromatin condensation at IC50 incubated for 48 hrs by Hoechst 33258 staining based confocal microscopic analysis; assay type: functional, cell-based
Heat shock protein HSP90 [23] = biological target: T2, Heat shock protein HSP90; assay: Inhibition of human recombinant HSP90 incubated for 30 mins by fluorescence polarization based analysis; assay type: protein assay

| SMILES | IC50 (BXPC-3 [1]) | residual activity [2] | inhibition [3] | inhibition [4] | IC50 (PSN1 [5]) | IC50 (PSN1 [6]) | IC50 (BXPC-3 [7]) | other results |
| --- | --- | --- | --- | --- | --- | --- | --- | --- |
| Cn1cc(-c2nc(N)nnc2-c2c[nH]c3ccc(Br)cc23)c2cccnc21 | 19.9 µM | 40% | 100% | 100% | 24.1 µM | 3.6 µM | 2.5 µM | – |
| CCCCCC[C@H]1C(=O)O[C@H](C)[C@H](NC(=O)c2cccc(NC=O)c2O)C(=O)O[C@@H](C)[C@@H]1OC(=O)CC(C)C | – | – | – | – | – | – | – | Activity (PSN1 [8]): Active |
| COc1ccc2[nH]cc(-c3nc(N)nnc3-c3c[nH]c4ncc(Br)cc34)c2c1 | 31.2 µM | 40% | 100% | 100% | 17.2 µM | 4.7 µM | 4.4 µM | – |
| Cn1cc(-c2nc(N)nnc2-c2c[nH]c3ccc(F)cc23)c2cc(Br)cnc21 | 5 µM | 60% | – | – | 8.3 µM | 2.3 µM | 0.2 µM | inhibition (PSN1 [9]): Active; IC50 [10]: 0.15 µM; inhibition (Heat shock protein HSP90 [11]): 60%; inhibition (PSN1 [12]): Active; Activity (PSN1 [13]): Active; Activity (PSN1 [14]): Active; Activity (PSN1 [8]): Active; inhibition [15]: 60%; Activity (PSN1 [16]): Active |
| Cn1cc(-c2nc(N)nnc2-c2c[nH]c3ccc(Br)cc23)c2cc(Br)cnc21 | 6 µM | 0% | – | 100% | 24.2 µM | 1.1 µM | 0.7 µM | inhibition (PSN1 [9]): Active; IC50 [10]: 0.06 µM; inhibition (Heat shock protein HSP90 [11]): 40%; inhibition (PSN1 [12]): Active; Activity (PSN1 [13]): Active; Activity (PSN1 [14]): Active; Activity (PSN1 [8]): Active; inhibition [15]: 0%; Activity (PSN1 [16]): Active |
| O=C(c1ccccc1)C(Cl)Cl | 78.2 µM | – | – | – | 87.4 µM | 36.5 µM | 10.2 µM | inhibition (PSN1 [9]): Active; IC50 [10]: > 100 µM; inhibition (PSN1 [12]): Active; Activity (PSN1 [14]): Active |
| Cn1cc(-c2nnc(N)nc2-c2c[nH]c3ccc(Br)cc23)c2cccnc21 | 25.9 µM | 40% | 100% | 100% | 20.9 µM | 2.9 µM | 2.3 µM | – |
| Cn1cc(-c2nnc(N)nc2-c2c[nH]c3ccc(F)cc23)c2cc(Br)cnc21 | 6.9 µM | 0% | – | 100% | 11.2 µM | 0.6 µM | 0.2 µM | inhibition (PSN1 [9]): Active; Activity (PSN1 [17]): Active; IC50 [10]: 0.06 µM; inhibition (Heat shock protein HSP90 [11]): 60%; inhibition (PSN1 [12]): Active; Activity (PSN1 [18]): Active; Activity (PSN1 [19]): Active; Activity (PSN1 [13]): Active; Activity (PSN1 [14]): Active; Activity (PSN1 [8]): Active; Activity (PSN1 [20]): Active; inhibition [15]: 0%; Activity (PSN1 [16]): Active; Activity (PSN1 [21]): Active; Activity (PSN1 [22]): Active |
| COc1ccc2[nH]cc(-c3nc(N)nnc3-c3c[nH]c4ncccc34)c2c1 | 34.2 µM | 40% | 100% | 100% | 35.2 µM | 2.2 µM | 2.1 µM | – |
| Nc1nnc(-c2c[nH]c3ncc(Br)cc23)c(-c2c[nH]c3ccc(F)cc23)n1 | 19.7 µM | 40% | 100% | 100% | 28.3 µM | 2.9 µM | 2.5 µM | – |
| Nc1nnc(-c2c[nH]c3ccc(F)cc23)c(-c2c[nH]c3ncc(Br)cc23)n1 | 14.9 µM | 40% | 100% | 100% | 19.2 µM | 1.3 µM | 1.7 µM | – |
| Cn1cc(-c2nnc(N)nc2-c2c[nH]c3ccc(Br)cc23)c2cc(Br)cnc21 | 24.8 µM | 60% | – | 100% | 39.1 µM | 1.3 µM | 0.1 µM | inhibition (PSN1 [9]): Active; IC50 [10]: 0.21 µM; inhibition (Heat shock protein HSP90 [11]): 40%; inhibition (PSN1 [12]): Active; IC50 (Heat shock protein HSP90 [23]): 1.4 µM; Activity (PSN1 [13]): Active; Activity (PSN1 [14]): Active; Activity (PSN1 [8]): Active; inhibition [15]: 60%; Activity (PSN1 [16]): Active |
| Nc1nnc(-c2c[nH]c3ccccc23)c(-c2c[nH]c3ncccc23)n1 | 23.2 µM | 40% | 100% | 100% | 14.3 µM | 1.8 µM | 1.5 µM | – |
| Cn1cc(-c2nnc(N)nc2-c2c[nH]c3ccc(F)cc23)c2cccnc21 | 14.6 µM | 40% | 100% | 100% | 16 µM | 1.6 µM | 1.6 µM | – |
| COc1ccc2[nH]cc(-c3nc(N)nnc3-c3cn(C)c4ncc(Br)cc34)c2c1 | 6.3 µM | 40% | 100% | 100% | 8.4 µM | 2.6 µM | 0.3 µM | inhibition (Heat shock protein HSP90 [11]): 0% |
| Cn1cc(-c2nc(N)nnc2-c2c[nH]c3ccc(F)cc23)c2cccnc21 | 22.2 µM | 40% | 100% | 100% | 20.3 µM | 3.2 µM | 2.2 µM | – |
| Nc1nnc(-c2c[nH]c3ncc(Br)cc23)c(-c2c[nH]c3ccc(Br)cc23)n1 | 28.7 µM | 40% | 100% | 100% | 23.5 µM | 4.6 µM | 2.1 µM | – |

— ChEMBL document CHEMBL5346893, “1,2,4-Amino-triazine derivatives as pyruvate dehydrogenase kinase inhibitors: Synthesis and pharmacological evaluation” (Eur J Med Chem, 2023)
